Data on twelve molecules can be found in patent US7807712B2, “Oxy substituted chalcones as antihyperglycemic and antidyslipidemic agents” (priority 2004, dated 2010).

Read-outs that look alike come from different tables or passages of the source.

The test system of one data set is sucrose loaded rats. Kind of data set: Sucrose loaded rat model (SLM), antihyperglycemic activity. The class given is in vivo, rat (Charles Foster/Wistar). To be noted: 100 mg/kg oral, sucrose load 10.0 g/kg, AUC vs control, 30-120 min; for inhibition in vivo at 100 mg/kg: Rattus norvegicus, 2 h, read-out: % Fall in blood glucose levels SLM. As for the experimental part:
Male albino rats of Charles Foster/Wistar strain of average body weight 160±20 g were selected for this study. The blood glucose level of each animal was checked by glucometer using glucostrips (Boehringer Mannheim) after 16 h starvation. Animals showing blood glucose levels between 3.33 to 4.44 mM (60 to 80 mg/dl) were divided into groups of five to six animals in each. Animals of experimental group were administered suspension of the desired synthetic compound orally (made in 1.0% gum acacia) at a dose of 100-mg/kg-body weight. Animals of control group were given an equal amount of 1.0% gum acacia. A sucrose load (10.0 g/kg) was given to each animal orally exactly after 30 min post administration of the test sample/vehicle. Blood glucose profile of each rat was again determined at 30, 60, 90 and 120 min post administration of sucrose by glucometer. Food but not water was withheld from the cages during the course of experimentation. Quantitative glucose tolerance of each animal was calculated by Area Under Curve (AUC) method (Prism Software). Comparing the AUC of experimental and control groups determined the percentage antihyperglycemic activity. Statistical comparison was made by Dunnett's test.

Data set [1] concerns triton WR-1339 induced hyperlipidemic rats. Kind of data set: Triton model, antidyslipidemic activity. The class given is in vivo, rat (Charles foster). To be noted: 100 mg/kg oral; for inhibition in vivo at 100 mg/kg: Rattus norvegicus. How it is done: Male Charles foster rats weighing 200-225 g were divided into control, hyperlipidemic and hyperlipidemic plus drug treated groups containing six animals in each group. Hyperlipidemia was induced by administration of triton WR-1339 (200 mg/kg i.p.). All animals were maintained on a special pellet diet and water ad libitum. Compounds and standard drug were macerated with 0.2% aqueous gum acacia suspension. The suspension was fed orally at the dose of 100 mg/kg simultaneously with triton in drug treated group. The animals of control group received the same amount of gum acacia by similar route of administration. At the end of the experiment, after 18 h, blood was withdrawn from retro orbital plexus and plasma was used for the assay of total cholesterol, phospholipid and triglycerides.
Cholesterol was estimated using the kit provided by Roche Diagnostics. Cholesterol esters are enzymatically hydrolyzed by cholesterol esterase (CE) to cholesterol and free fatty acids. Free cholesterol, including that originally present, is then oxidized by cholesterol oxidase (CO) to cholest-4-en-3-one and hydrogen peroxide. The hydrogen peroxide combines with hydroxy benzoic acid (HBA) and 4-aminoantipyrine (4AAA) in the presence of peroxidase (POD) to form a chromophore (quinoneimine dye), which may be quantitated at 500-505 nm. The intensity of red colour formed is directly proportional to the concentration of total cholesterol in the specimen and measured spectrophotometrically (Searcy, C. L. Diagnostic Biochemistry, 1969, McGraw Hill, New York; Ellefson, R. D.; Caraway, W. T. Fundamentals of clinical chemistry, 1976, Ed Tietz N W, 506-515.)
Triglycerides were estimated using the kit provided by Roche Diagnostics. Lipoprotein lipase hydrolyses triglycerides to yield glycerol and fatty acids. Glycerol kinase converts glycerol to glycerol-3-phosphate, which is oxidized by glycerol phosphate oxidase to dihydroxy acetone phosphate and hydrogen peroxide. In the presence of peroxidase, hydrogen peroxide oxidatively couples with 4-aminoantipyrine and 4-chloro phenol to produce red quinonimine dye. The intensity of red colour formed is directly proportional to the concentration of triglycerides in the specimen and is measured by photometrically (Wahlefeld, A. W.; Bergmeyer, H. U. Ed. Methods of enzymatic analysis, 2nd English edition, New York, N.Y., Academic press inc, 1831-1840.).
Serum (0.2 mL) and perchloric acid (1.0 mL) was digested at 180° C. for 1-1.5 h till the solution became colorless. The liberated inorganic phosphate (Pi) was measured by the method of Fiske and Subbarow (Fiske, C. H.; Subbarow, V. J. Biol. Chem. 1925, 66, 375.). 1 mL of 2.5% ammonium molybdate (prepared in 5 N sulphuric acid) and 0.5 mL reducing agent (4-amino naphthol sulphonic acid, 0.2%), sodium metabisulphite (2.4% w/v in distilled water) was added to the above tubes and mixed well. The reaction mixture was […] with 2.5 mL of triple distilled water and kept at 60° C. in water bath for 20 min. For standard, an appropriate amount of potassium dihydrogen phosphate dissolved in triple distilled water containing 2-10 μg phosphorus (Pi) was run simultaneously with the experiment tubes. The optical density of the blue colour was recorded at 620 nm against reagent blank. The values of Pi were converted into phospholipid by multiplying with 25 (a constant calibrated from Pi value of lecithin).

Data set [2] deals with streptozotocin-induced diabetic rats. Kind of data set: Sucrose-challenged streptozotocin-induced diabetic rats (STZ-S), antihyperglycemic activity. To be noted: 100 mg/kg oral, sucrose load 2.5 g/kg, AUC vs control. The class given is in vivo, rat (Sprague Dawley). How it is done: Male albino rats of Sprague Dawley strain of body weight […] were selected for this study. Streptozotocin (Sigma, USA) was dissolved in 100 mM citrate buffer pH 4.5 and calculated amount of the fresh solution was injected to overnight fasted rats (45 mg/kg) intraperitoneally. Blood glucose level was checked 48 h later by glucostrips and animals showing blood glucose values between 144 to 270 mg/dl (8 to 15 mM) were included in the experiment and termed diabetic. The diabetic animals were divided into groups consisting of five to six animals in each group. Animals of experimental groups were administered suspension of the desired test samples orally (made in 1.0% gum acacia) at a dose of 100-mg/kg-body weight. Animals of control group were given an equal amount of 1.0% gum acacia. A sucrose load of 2.5-g/kg body weight was given after 30 minutes of compound administration. After 30 minutes of post sucrose load blood glucose level was again checked by glucostrips at 30, 60, 90, 120, 180, 240, 300 min and at 24 h, respectively. Animals not found diabetic after 24 hours post treatment of the test sample were not considered and omitted from the calculations and termed as non-responders. […] Food but not water was withheld from the cages during the experimentation. Comparing the AUC of experimental and control groups determined the percent antihyperglycemic activity. Statistical comparison between groups was made by Student's ‘t’ test.

The mark [3] stands for this setting: plasma phospholipid after 18 h, read-out: % Fall in lipid levels (Triton model) PL.
Where [4] appears, read: plasma total cholesterol after 18 h, read-out: % Fall in lipid levels (Triton model) TC.
Where [5] appears, read: plasma triglycerides after 18 h, read-out: % Fall in lipid levels (Triton model) TG.
Where [6] appears, read: plasma total cholesterol after 18 h.
Setting [7] is: plasma triglycerides after 18 h.

For the molecule `COc1ccc(/C=C/C(=O)c2ccc(OCC(O)CNCC(C)C)cc2)cc1` (stereo not shown) [Compound 21, 4′-[3-iso-Butylamino-2-hydroxy-propoxy]-4-methoxy-chalcone], the melting point (as a rule, the temperature of the solid-liquid transition) was in the range of 76 to 77 °C. Also, the inhibition in vivo at 100 mg/kg in the data set with sucrose loaded rats worked out at 5.67%. For the same molecule, in data set [1] (setting [3]), the inhibition in vivo at 100 mg/kg worked out at 14%. The inhibition in vivo at 100 mg/kg in data set [1] (setting [4]) stood at 5%. Also, the inhibition in vivo at 100 mg/kg in data set [1] (setting [5]) was 12%.

`CNCC(O)COc1ccc(C(=O)/C=C/c2ccc(OC)cc2)cc1` (stereo not shown) [Compound 26, 4′-[2-Hydroxy-3-methylamino-propoxy]-4-methoxy-chalcone]: the melting point fell in the range of 114 to 115 °C. Further, in data set [1] (setting [3]), the inhibition in vivo at 100 mg/kg is 28%. Besides, the inhibition in vivo at 100 mg/kg in data set [1] (setting [4]) was 37%. The inhibition in vivo at 100 mg/kg in data set [1] (setting [5]) worked out at 39%.

Turning to `COc1ccc(/C=C/C(=O)c2ccc(OCC(O)CNCCc3ccc(OC)c(OC)c3)cc2)cc1` (stereo not shown) [Compound 25, 4′-[3-{2-(3,4-Dimethoxyphenyl)-ethylamino}-2-hydroxy-propoxy]-4-methoxy-chalcone], the melting point lay in the range of 120 to 121 °C. Moreover, the “% Fall in blood glucose levels SLM” value in the data set on sucrose loaded rats is reported as “NIL”. Further, the inhibition in vivo at 100 mg/kg in data set [1] (setting [3]) worked out at 10%. The inhibition in vivo at 100 mg/kg in data set [1] (setting [4]) is 4%. The inhibition in vivo at 100 mg/kg in data set [1] (setting [5]) amounted to 33%.

The molecule `COc1ccc(/C=C/C(=O)c2ccc(OCC(O)CNC(C)(C)C)cc2)cc1OC` (stereo not shown) [Compound 19, 4′-[3-tert-Butylamino-2-hydroxy-propoxy]-3,4-dimethoxy-chalcone] showed a melting point of 62 to 64 °C. The inhibition in vivo at 100 mg/kg in the data set on sucrose loaded rats was determined as 11.2%. Also, in data set [2], the “% Fall in blood glucose levels STZ-S 5 h” value is “NIL” and the “% Fall in blood glucose levels STZ-S 24 h” value is “NIL”. For the same molecule, the inhibition in vivo at 100 mg/kg in data set [1] (setting [3]) was 22%. Further, the inhibition in vivo at 100 mg/kg in data set [1] (setting [4]) was 21%. In data set [1] (setting [5]), the inhibition in vivo at 100 mg/kg came out at 19%.

Turning to `COc1ccc(/C=C/C(=O)c2cccc(OCC(O)CNC(C)(C)C)c2)cc1` (stereo not shown) [Compound 30, 3′-[3-tert-Butylamino-2-hydroxy-propoxy]-4-methoxy-chalcone], the melting point was in the range of 83 to 84 °C. Also, in the data set on sucrose loaded rats, the inhibition in vivo at 100 mg/kg was 20%. Further, in data set [2], the “% Fall in blood glucose levels STZ-S 24 h” value is recorded as 11.3%. Besides, in data set [1] (setting [3]), the inhibition in vivo at 100 mg/kg stood at 25%. The inhibition in vivo at 100 mg/kg in data set [1] (setting [4]) is 27%. Further, the inhibition in vivo at 100 mg/kg in data set [1] (setting [5]) is 30%.

In the case of `COc1ccc(/C=C/C(=O)c2cccc(OCC(O)CNC(C)C)c2)cc1` (stereo not shown) [Compound 29, 3′-[2-Hydroxy-3-iso-propylamino-propoxy]-4-methoxy-chalcone], the melting point is 102 to 103 °C. Further, the inhibition in vivo at 100 mg/kg in the data set on sucrose loaded rats amounted to 6.85%. In addition, in data set [2], the “% Fall in blood glucose levels STZ-S 5 h” value was “NIL” and the “% Fall in blood glucose levels STZ-S 24 h” value was “NIL”. Besides, in data set [1] (setting [3]), the inhibition in vivo at 100 mg/kg was 27%. Further, the inhibition in vivo at 100 mg/kg in data set [1] (setting [4]) stood at 33%. Besides, the inhibition in vivo at 100 mg/kg in data set [1] (setting [5]) came to 27%.

Regarding `COc1ccc(/C=C/C(=O)c2ccc(OCC(O)CNC(C)C)cc2)cc1` (stereo not shown) [Compound 23, 4′-[2-Hydroxy-3-iso-propylamino-propoxy]-4-methoxy-chalcone], the melting point is 105 to 106 °C. Further, the inhibition in vivo at 100 mg/kg with sucrose loaded rats stood at 1.41%. For the same molecule, in data set [1] (setting [3]), the inhibition in vivo at 100 mg/kg was found to be 12%. Also, the inhibition in vivo at 100 mg/kg in data set [1] (setting [4]) was 17%. Besides, the inhibition in vivo at 100 mg/kg in data set [1] (setting [5]) was 22%.

`O=C(/C=C/c1ccc2c(c1)OCO2)c1ccc(OCC(O)CN2CCN(c3ccccc3)CC2)cc1` (stereo not shown) [Compound 33, 4′-[2-Hydroxy-3-(4-phenylpiperazin-1-yl)-propoxy]-3,4-methylenedioxy-chalcone] displayed a melting point of 153 to 154 °C. In the data set on sucrose loaded rats, the inhibition in vivo at 100 mg/kg is 5.03%. The inhibition in vivo at 100 mg/kg in data set [1] (setting [3]) was determined as 21%. Moreover, the inhibition in vivo at 100 mg/kg in data set [1] (setting [4]) is 22%. In addition, the inhibition in vivo at 100 mg/kg in data set [1] (setting [5]) stood at 16%.

Turning to `COc1ccc(C=CC(=O)c2cccc(OCCCCCOc3ccc(C=C4SC(=O)NC4=O)cc3)c2)cc1` [Compound 44, 4-Methoxy-3′-{5-[4-(thiazolidin-2,4-dione-5-ylidinemethyl)-phenoxy]-pentyloxy}-chalcone], the “% Fall in blood glucose levels SLM” value in the data set on sucrose loaded rats was “NIL”. Besides, the “% Fall in lipid levels (Triton model) PL” value in data set [1] (plasma phospholipid after 18 h) came to 13%. For the same molecule, the “% Fall in lipid levels (Triton model) TC” value in data set [1] (setting [6]) was 06%. In addition, the “% Fall in lipid levels (Triton model) TG” value in data set [1] (setting [7]) worked out at 19%.

As for `COc1ccc(C=CC(=O)c2cccc(OCCCCOc3ccc(C=C4SC(=O)NC4=O)cc3)c2)cc1` [Compound 43, 4-Methoxy-3′-{4-[4-(thiazolidin-2,4-dione-5-ylidinemethyl)-phenoxy]-butoxy}-chalcone], in the data set with sucrose loaded rats, the “% Fall in blood glucose levels SLM” value is “NIL”. Moreover, the “% Fall in lipid levels (Triton model) PL” value in data set [1] (plasma phospholipid after 18 h) is reported as 14%. The “% Fall in lipid levels (Triton model) TC” value in data set [1] (setting [6]) stood at 04%. The “% Fall in lipid levels (Triton model) TG” value in data set [1] (setting [7]) turned out to be 31%.

For `O=C1NC(=O)C(=Cc2ccc(OCCCCOc3cccc(C(=O)C=Cc4ccc5c(c4)OCO5)c3)cc2)S1` [Compound 45, 3,4-Methylenedioxy-3′-{4-[4-(thiazolidin-2,4-dione-5-ylidinemethyl)-phenoxy]-butoxy}-chalcone], the “% Fall in blood glucose levels SLM” value with sucrose loaded rats is listed as 0.13%. The “% Fall in lipid levels (Triton model) PL” value in data set [1] (plasma phospholipid after 18 h) is 21%. For the same molecule, in data set [1] (setting [6]), the “% Fall in lipid levels (Triton model) TC” value worked out at 23%. The “% Fall in lipid levels (Triton model) TG” value in data set [1] (setting [7]) came to 14%.

In turn, `COc1ccc(/C=C/C(=O)c2cccc(OCC(O)CN3CCN(c4ccccc4)CC3)c2)cc1` (stereo not shown) [Compound 28, 3′-[2-Hydroxy-3-(4-phenylpiperazin-1-yl)-propoxy]-4-methoxy-chalcone] yielded a melting point of 153 to 154 °C. Also, the inhibition in vivo at 100 mg/kg with sucrose loaded rats came to 4.41%. In data set [1] (setting [3]), the inhibition in vivo at 100 mg/kg was 26%. Further, the inhibition in vivo at 100 mg/kg in data set [1] (setting [4]) came out at 40%. Further, the inhibition in vivo at 100 mg/kg in data set [1] (setting [5]) worked out at 17%.
